# Measurements as given in patent US9808434B2, “Compound for treating cancer and diabetes” (CITY OF HOPE, priority 2011, dated 2017).
# Key:
# [1] = system: GST; assay: Total GST activity towards CDNB in H358 tumor tissue lysates; type: in vivo; conditions: n=3; control 0.32±0.03
# Text: The effect of COH-SR4 on signaling pathways of relevance to lung cancer progression was further analyzed by Western-blots of lysates from resected tumors (as described in Example 31). GAPDH was used as internal control. The bar diagrams (FIG. 82B) represent the fold change in the levels of proteins as compared to the controls as determined by densitometry. Dotted line represents no significant change observed when compared to the controls. The COH-SR4 treated groups had high levels of cleaved-PARP compared to the untreated controls, which reinforces the finding of apoptotic effect as observed in-vitro by TUNEL assay. Akt is a signaling protein that transduces the proliferative signals from upstream integrins and growth factor receptors. The COH-SR4 treatments increased the levels of PARP cleavage along with decreased levels of pAkt (S^473). […] In accordance with decreased levels of pAkt (S^473), the levels of pP70S6K were decreased in COH-SR4 treated groups compared to controls. […] COH-SR4 treated tumor tissue lysates were analyzed to test the impact of long term COH-SR4 treatment in vivo on GST expression and activity. […] The total GST activity as measured by activity towards CDNB as a substrate, in COH-SR4 treated tumor tissue lysates was lower compared to the controls [control, 0.32±0.03 U/mg protein; COH-SR4 treated, 0.21±0.05 U/mg protein; (n=3)]. […]
# [2] = system: AMPK; assay: AMPK activation in 3T3-L1 cells, Western blot; type: cell-based, mouse; conditions: 1 hour
# Method: Activation of AMPK was associated with the phosphorylation of the α-subunit on Thr-172 of as assessed using phospho-specific antibodies (FIGS. 10A-B). AMPK activation also leads to the increased phosphorylation of the target protein acetyl-CoA carboxylase (ACC) (FIG. 10B).
# Cells of each cell lines (Hela, HL-60, and 3T3-L1) were treated for 1 hour with a test compound (COH-SR4, COH-SR9, COH-SR16, or COH-SR18) at a concentration of 1 μM, 3 μM, or 5 μM, or AICAR (5-aminoimidazole-4-carboxamideriboside, an AMPK agonist used as positive control) at a concentration of 500 μM, or none of the above (the untreated cells as negative control). Total cell lysates from the untreated cells and the cells treated with a test compound or AICAR were analyzed by Western blot assay using specific antibodies against phospho-AMPK, phospho-ACC, total AMPK and total ACC.
# [3] = system: GST; assay: GST activity towards CDNB in melanoma cell supernatants; type: biochemical; conditions: B16-F0, Hs600T, A2058 supernatants; 1 mM GSH and CDNB
# Method: GST activity towards 1-chloro 2,4-dinitro benzene (CDNB) and its inhibition by COH-SR4 was performed in 28000×g crude supernatant prepared from B16-F0, Hs600T and A2058 cells. Human liver purified GST was used as a control (inset). The inhibitory effect of COH-SR4 on GST was studied at a fixed concentration of GSH and CDNB (1 mM each) and varying concentrations of inhibitor. The enzymes were pre-incubated with the inhibitor for 5 min at 37° C. prior to the addition of the substrates. […] The ability of COH-SR4 to inhibit GST activity in melanomas represents a potential mechanism that contributes to decreased survival of melanoma cells following COH-SR4 treatment (FIG. 68A).
# [4] = system: A375; assay: Colony formation assay, A375; type: cell-based, human; conditions: 5 μM
# Method: Cell survival was evaluated using a standard colony-forming assay. In total, 1×10^5 cells/mL were incubated with COH-SR4 (1.5 μM or 5 μM) or elesclomol (5 μM) for 24 h, and aliquots of 50 or 100 μL were added to 60 mm size petri dishes, containing 4 mL culture medium. After 7 or 10 days, adherent colonies were fixed, stained with 0.5% methylene blue for 30 min and colonies were counted using the Innotech Alpha Imager HP (91).
# [5] = system: CD133 sorted PBT-017 glioma cells; assay: Killing of CD133 sorted PBT-017 glioma cells; type: cell-based; conditions: 0-100 μM, 4 days
# Method: CD133 positive glioma stem cells were sorted by FACS. Unsorted cells, CD133 positive cells, and CD133 negative PBT-017 glioma cells were treated with COH-SR4 at various concentrations (0˜100 μM) for 4 days, respectively. Data were represented as a ratio to untreated control, and plotted as mean±SEM (n=12) obtained from 2˜3 experiments (FIG. 39A).
# [6] = system: isolated mouse liver mitochondria; assay: Mitochondrial swelling assay; conditions: potassium acetate buffer with valinomycin
# Method: Mitochondrial swelling was measured in non-respiring mouse liver mitochondria incubated in buffered isotonic potassium acetate in the presence of valinomycin (24,25). […] Absorbance of the mitochondrial suspension before and after addition test compounds was measured every 10 seconds using a Varian Cary 300 spectrophotometer (Agilent Technologies, Santa Clara, Calif.). Swelling was recorded from the decrease in absorbance at 600 nm and expressed as percentage from initial reading after addition of mitochondria.
# Mitochondrial membrane swelling was detected as decrease in absorbance at 600 nm following the addition of COH-SR4 or FCCP alone or in the presence of cysclosporin A (CSA, 1 μM) on isolated mouse liver mitochondria respiring on succinate (10 mM) in the presence of rotenone (1 μM) and valinomycin (5 μM) in potassium acetate buffer. […] Arrow indicates time of addition of test compounds into the mitochondria suspension.
compound,measurement,setting,value
"O=C(Nc1cc(Cl)cc(Cl)c1)Nc1cc(Cl)cc(Cl)c1 [COH-SR4, 1,3-bis(3,5-dichlorophenyl) urea]",total GST activity towards CDNB,[1],0.21±0.05 U/mg protein
same,AMPK activation,[2],activated AMPK
same,total GST activity towards CDNB,[3],inhibited the total GST activity to a significant extent
same,colony formation,[4],42±6%
same,"killing of CD133 positive, negative and unsorted cells",[5],effective in killing the CD133 positive glioma stem cells
same,mitochondrial swelling (absorbance at 600 nm),[6],mitochondrial swelling was observed
